According to ChEMBL document CHEMBL1201862, “PubChem BioAssay data set” (2004):
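Cultured in 96-well plates, cells were exposed to test compound for 48 hours across five concentrations. GI50: concentration for 50% inhibition of growth.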 Calls of active or inactive are those of the source. Cut-off read from the data, not from the text of the source: active = GI50 up to about 1.1 µM and inactive = higher.

What was measured:
Assay in all cases: NCI-60 cell line screen, 48 h
BT-549 = system: BT-549
NCI/ADR-RES = system: NCI/ADR-RES
T47D = system: T47D
MOLT-4 = system: MOLT-4
UACC-257 = system: UACC-257
IGROV-1 = system: IGROV-1
SK-MEL-28 = system: SK-MEL-28
EKVX = system: EKVX
MCF7 = system: MCF7
SW-620 = system: SW-620
SF-268 = system: SF-268
HOP-62 = system: HOP-62
TK-10 = system: TK-10
A498 = system: A498
Hs-578T = system: Hs-578T
UACC-62 = system: UACC-62
HOP-92 = system: HOP-92
U-251 = system: U-251
RPMI-8226 = system: RPMI-8226
RXF 393 = system: RXF 393

Q: What does the source list for `O=C(O)CC1OCC=C2CN3CCC45C6=CC(=O)C(O)=C([N+](=O)[O-])C6=NC4C1C2CC35` (stereo not given)?
A: GI50 (BT-549): > 100 µM (inactive); GI50 (NCI/ADR-RES): > 100 µM (inactive); GI50 (T47D): > 100 µM (inactive); GI50 (MOLT-4): 89.5 µM (inactive); GI50 (UACC-257): > 100 µM (inactive); GI50 (IGROV-1): > 100 µM (inactive); GI50 (SK-MEL-28): > 100 µM (inactive); GI50 (EKVX): > 100 µM (inactive); GI50 (MCF7): > 100 µM (inactive); GI50 (SW-620): 47 µM (inactive); GI50 (SF-268): > 100 µM (inactive); GI50 (HOP-62): > 100 µM (inactive); GI50 (TK-10): > 100 µM (inactive); GI50 (A498): > 100 µM (inactive); GI50 (Hs-578T): > 100 µM (inactive); GI50 (UACC-62): 34.4 µM (inactive); GI50 (HOP-92): > 100 µM (inactive); GI50 (U-251): > 100 µM (inactive); GI50 (RPMI-8226): 31 µM (inactive); GI50 (RXF 393): > 100 µM (inactive)

Q: Which results are given for `CC(C)Cn1cnc2c(NCC(C)O)nc3ccccc3c21` (stereo not given)?
A: GI50 (BT-549): > 100 µM (inactive); GI50 (NCI/ADR-RES): > 100 µM (inactive); GI50 (T47D): > 100 µM (inactive); GI50 (MOLT-4): 63.2 µM (inactive); GI50 (UACC-257): > 100 µM (inactive); GI50 (IGROV-1): 36.8 µM (inactive); GI50 (SK-MEL-28): > 100 µM (inactive); GI50 (EKVX): 29 µM (inactive); GI50 (MCF7): > 100 µM (inactive); GI50 (SW-620): > 100 µM (inactive); GI50 (SF-268): > 100 µM (inactive); GI50 (HOP-62): > 100 µM (inactive); GI50 (TK-10): 91.4 µM (inactive); GI50 (A498): 60.8 µM (inactive); GI50 (Hs-578T): 45.7 µM (inactive); GI50 (UACC-62): 52.2 µM (inactive); GI50 (HOP-92): 27.9 µM (inactive); GI50 (U-251): > 100 µM (inactive); GI50 (RPMI-8226): > 100 µM (inactive); GI50 (RXF 393): > 100 µM (inactive)

Q: Which GI50 (BT-549) does the source give for `COc1ccc(N/N=C2\C3=C(CCC(C)(C)O3)C(=O)c3ccccc32)cc1` here?
A: 19.1 µM (inactive)

Q: What about the GI50 (NCI/ADR-RES) of the same compound?
A: 19.6 µM (inactive)

Q: And the GI50 (T47D)?
A: 2.51 µM (inactive)

Q: What about the GI50 (MOLT-4) of the same compound?
A: 18.1 µM (inactive)

Q: What about the GI50 (UACC-257) of the same compound?
A: 19.7 µM (inactive)

Q: And the GI50 (IGROV-1)?
A: 15.2 µM (inactive)

Q: And the GI50 (SK-MEL-28)?
A: 22.2 µM (inactive)

Q: And the GI50 (EKVX)?
A: 18.1 µM (inactive)

Q: And the GI50 (MCF7)?
A: 12.4 µM (inactive)

Q: What about the GI50 (SW-620) of the same compound?
A: 34 µM (inactive)

Q: And the GI50 (SF-268)?
A: 15.3 µM (inactive)

Q: And the GI50 (HOP-62)?
A: 20.9 µM (inactive)

Q: And the GI50 (TK-10)?
A: 20.5 µM (inactive)

Q: What about the GI50 (A498) of the same compound?
A: 15 µM (inactive)

Q: And the GI50 (Hs-578T)?
A: 19.1 µM (inactive)

Q: What about the GI50 (UACC-62) of the same compound?
A: 14.5 µM (inactive)

Q: What about the GI50 (HOP-92) of the same compound?
A: 21.1 µM (inactive)

Q: And the GI50 (U-251)?
A: 19.2 µM (inactive)

Q: And the GI50 (RPMI-8226)?
A: 16.8 µM (inactive)

Q: What about the GI50 (RXF 393) of the same compound?
A: 12.4 µM (inactive)

Q: For `CCO/C=N/C1=C(C#N)SC2=N/C(=C\c3ccccc3)C(=O)N21`, which GI50 (BT-549) is on record?
A: > 100 µM (inactive)

Q: What about the GI50 (NCI/ADR-RES) of the same compound?
A: > 100 µM (inactive)

Q: What about the GI50 (T47D) of the same compound?
A: 86.9 µM (inactive)

Q: And the GI50 (MOLT-4)?
A: 31.7 µM (inactive)

Q: What about the GI50 (UACC-257) of the same compound?
A: > 100 µM (inactive)

Q: And the GI50 (IGROV-1)?
A: > 100 µM (inactive)

Q: And the GI50 (SK-MEL-28)?
A: > 100 µM (inactive)

Q: And the GI50 (EKVX)?
A: 77.3 µM (inactive)

Q: What about the GI50 (MCF7) of the same compound?
A: > 100 µM (inactive)

Q: What about the GI50 (SW-620) of the same compound?
A: > 100 µM (inactive)

Q: And the GI50 (SF-268)?
A: > 100 µM (inactive)

Q: What about the GI50 (HOP-62) of the same compound?
A: > 100 µM (inactive)

Q: What about the GI50 (TK-10) of the same compound?
A: > 89.1 µM (inactive)

Q: And the GI50 (A498)?
A: > 85.1 µM (inactive)

Q: And the GI50 (Hs-578T)?
A: > 100 µM (inactive)

Q: What about the GI50 (UACC-62) of the same compound?
A: > 100 µM (inactive)

Q: And the GI50 (HOP-92)?
A: > 100 µM (inactive)

Q: And the GI50 (U-251)?
A: > 100 µM (inactive)

Q: What about the GI50 (RPMI-8226) of the same compound?
A: > 58.1 µM (inactive)

Q: What about the GI50 (RXF 393) of the same compound?
A: > 100 µM (inactive)

Q: Which results are given for `CC(=O)OC1(C)N=NC2(CCCCC2)O1` (stereo not given)?
A: GI50 (BT-549): > 100 µM (inactive); GI50 (NCI/ADR-RES): > 100 µM (inactive); GI50 (T47D): > 100 µM (inactive); GI50 (MOLT-4): > 100 µM (inactive); GI50 (UACC-257): > 100 µM (inactive); GI50 (IGROV-1): > 100 µM (inactive); GI50 (SK-MEL-28): > 100 µM (inactive); GI50 (EKVX): > 100 µM (inactive); GI50 (MCF7): > 100 µM (inactive); GI50 (SW-620): > 100 µM (inactive); GI50 (SF-268): > 100 µM (inactive); GI50 (HOP-62): > 100 µM (inactive); GI50 (TK-10): > 100 µM (inactive); GI50 (A498): > 100 µM (inactive); GI50 (Hs-578T): > 100 µM (inactive); GI50 (UACC-62): > 100 µM (inactive); GI50 (HOP-92): > 100 µM (inactive); GI50 (U-251): > 100 µM (inactive); GI50 (RPMI-8226): > 100 µM (inactive); GI50 (RXF 393): > 100 µM (inactive)

Q: What does the source list for `OC1(c2ccccc2)c2ccccc2N=C2NCCN21` (stereo not given)?
A: GI50 (BT-549): > 100 µM (inactive); GI50 (NCI/ADR-RES): > 100 µM (inactive); GI50 (T47D): 65.6 µM (inactive); GI50 (MOLT-4): 0.424 µM (active); GI50 (UACC-257): 31.1 µM (inactive); GI50 (IGROV-1): > 100 µM (inactive); GI50 (SK-MEL-28): 89.3 µM (inactive); GI50 (EKVX): > 100 µM (inactive); GI50 (MCF7): 63.1 µM (inactive); GI50 (SW-620): 84.7 µM (inactive); GI50 (SF-268): > 100 µM (inactive); GI50 (HOP-62): > 100 µM (inactive); GI50 (TK-10): 37.4 µM (inactive); GI50 (A498): 86.5 µM (inactive); GI50 (Hs-578T): > 100 µM (inactive); GI50 (UACC-62): 51.4 µM (inactive); GI50 (HOP-92): 54.5 µM (inactive); GI50 (U-251): 91.8 µM (inactive); GI50 (RPMI-8226): 11.1 µM (inactive); GI50 (RXF 393): 82.6 µM (inactive)

Q: For `CC(=O)OC1CN2CCC1CC2` (stereo not given) [ACECLIDINE], which GI50 (BT-549) is on record?
A: > 100 µM (inactive)

Q: And the GI50 (NCI/ADR-RES)?
A: > 100 µM (inactive)

Q: And the GI50 (T47D)?
A: > 100 µM (inactive)

Q: And the GI50 (MOLT-4)?
A: > 100 µM (inactive)

Q: What about the GI50 (UACC-257) of the same compound?
A: > 100 µM (inactive)

Q: What about the GI50 (IGROV-1) of the same compound?
A: > 100 µM (inactive)

Q: And the GI50 (SK-MEL-28)?
A: > 100 µM (inactive)

Q: And the GI50 (EKVX)?
A: > 100 µM (inactive)

Q: What about the GI50 (MCF7) of the same compound?
A: > 100 µM (inactive)

Q: And the GI50 (SW-620)?
A: > 100 µM (inactive)

Q: What about the GI50 (SF-268) of the same compound?
A: > 100 µM (inactive)

Q: What about the GI50 (HOP-62) of the same compound?
A: > 100 µM (inactive)

Q: And the GI50 (TK-10)?
A: > 100 µM (inactive)

Q: And the GI50 (A498)?
A: 3.45 µM (inactive)

Q: What about the GI50 (Hs-578T) of the same compound?
A: > 100 µM (inactive)

Q: And the GI50 (UACC-62)?
A: > 100 µM (inactive)

Q: What about the GI50 (HOP-92) of the same compound?
A: > 100 µM (inactive)

Q: And the GI50 (U-251)?
A: > 100 µM (inactive)

Q: What about the GI50 (RPMI-8226) of the same compound?
A: > 100 µM (inactive)

Q: What about the GI50 (RXF 393) of the same compound?
A: > 100 µM (inactive)
